One block for each compound: values may come before it.
Columns and labels:
[1] = system: CYP-induced visceral pain; experiment: Cyclophosphamide (CYP)-induced visceral pain model (acute cystitis), von Frey testing; format: in vivo, female Sprague-Dawley rats; conditions: for AUC 1-6 g (allodynia) / Nociceptive threshold: mean ± s.e.m.
[2] = Urine concentration after a single oral dose (methyl cellulose suspension); format: in vivo, humans; conditions: human
[3] = 30 mg/kg p.o., overall 2-24 h after CYP

SMILES: CC(C)Cc1ccc(C(C)C(=O)O)cc1 (centres unmarked) [Ibuprofen, reference compound]
Effect on nociceptive scores vs vehicle ([1]; 300 mg/kg p.o., all along the observation period (2-24 h)): significantly decreased
Effect on nociceptive threshold vs vehicle ([1]; 300 mg/kg p.o., overall 2-24 h after CYP): significant overall increase

Urine concentration, mean ([2]; 0.2 mg single oral dose, 0 to 8 h): 2311 nM
Urine concentration, mean ([2]; 0.2 mg single oral dose, 8 to 16 h): 394 nM
Urine concentration, mean ([2]; 0.2 mg single oral dose, 16 to 24 h): BQL
Urine concentration, mean ([2]; 0.2 mg single oral dose, 24 to 32 h): BQL
Urine concentration, mean ([2]; 0.2 mg single oral dose, 32 to 40 h): BQL
Urine concentration, mean ([2]; 0.2 mg single oral dose, 40 to 48 h): BQL
Urine concentration, mean ([2]; 0.6 mg single oral dose, 0 to 8 h): 1641 nM
Urine concentration, mean ([2]; 0.6 mg single oral dose, 8 to 16 h): 531 nM
Urine concentration, mean ([2]; 0.6 mg single oral dose, 16 to 24 h): BQL
Urine concentration, mean ([2]; 0.6 mg single oral dose, 24 to 32 h): BQL
Urine concentration, mean ([2]; 0.6 mg single oral dose, 32 to 40 h): BQL
Urine concentration, mean ([2]; 0.6 mg single oral dose, 40 to 48 h): BQL
Urine concentration, mean ([2]; 2 mg single oral dose, 0 to 8 h): 10809 nM
Urine concentration, mean ([2]; 2 mg single oral dose, 8 to 16 h): 1440 nM
Urine concentration, mean ([2]; 2 mg single oral dose, 16 to 24 h): 400 nM
Urine concentration, mean ([2]; 2 mg single oral dose, 24 to 32 h): BQL
Urine concentration, mean ([2]; 2 mg single oral dose, 32 to 40 h): BQL
Urine concentration, mean ([2]; 2 mg single oral dose, 40 to 48 h): BQL
Urine concentration, mean ([2]; 10 mg single oral dose, 0 to 8 h): 30964 nM
Urine concentration, mean ([2]; 10 mg single oral dose, 8 to 16 h): 14181 nM
Urine concentration, mean ([2]; 10 mg single oral dose, 16 to 24 h): 1994 nM
Urine concentration, mean ([2]; 10 mg single oral dose, 24 to 32 h): 535 nM
Urine concentration, mean ([2]; 10 mg single oral dose, 32 to 40 h): 240 nM
Urine concentration, mean ([2]; 10 mg single oral dose, 40 to 48 h): BQL
SMILES: O=C(O)c1nc2ccccc2n([C@H]2C[C@H]3CCC[C@@H](C2)N3C2CC3CCCC(C3)C2)c1=O (some centres unmarked) [compound of formula (IA)]
AUC 1-6 g (allodynia) ([1]; 30 mg/kg p.o., +2 h after CYP): 19.8±6.9 % scores × g
Nociceptive threshold ([1]; 30 mg/kg p.o., +2 h after CYP): 6.6 ± 0.8 g
AUC 1-6 g (allodynia) ([1]; 30 mg/kg p.o., +3 h after CYP): 19.3±6.3 % scores × g
Nociceptive threshold ([1]; 30 mg/kg p.o., +3 h after CYP): 6.3 ± 1.2 g
AUC 1-6 g (allodynia) ([1]; 30 mg/kg p.o., +4 h after CYP): 34.1±7.9 % scores × g
Nociceptive threshold ([1]; 30 mg/kg p.o., +4 h after CYP): 4.8 ± 0.8 g
AUC 1-6 g (allodynia) ([1]; 30 mg/kg p.o., +24 h after CYP): 61.8±15.7 % scores × g
Nociceptive threshold ([1]; 30 mg/kg p.o., +24 h after CYP): 3.7 ± 0.8 g
Effect on nociceptive threshold vs vehicle ([1]; 30 mg/kg p.o., CYP-injected rats, overall 2-24 h): overall inhibitory effect
Effect on nociceptive scores vs vehicle ([1]; 30 mg/kg p.o., from 2 h up to 24 h after CYP): significant decrease
Effect on AUC 1-6 g vs vehicle [1, 3]: overall decrease
Effect on CYP-induced AUC 6-26 g increase (hyperalgesia) vs vehicle [1, 3]: significant overall inhibitory effect
